pIC50: −log10 of the molar value. Where two headings read alike, the source gives them in different places.
Experiments:
Format in all cases: biochemical
AKT = target: T1, AKT (Homo sapiens, UniProt Q9Y243); test: Kinase inhibition assay (33P transfer), AKT; conditions: Table 2, kinase inhibition class; read-out: AKT3-1
T1 construct: Kinases are expressed as either kinase domains or full length constructs; made in house
In short: (§1)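 Radiometric readout: 33P incorporated into surface-bound poly(Glu,Tyr) 4:1 or poly(Arg,Ser) 3:1 is counted by liquid scintillation after a 0.5% phosphoric acid wash. Enzymes were GST or polyHis fusions (kinase domain or full length) from E. coli or High Five insect cells.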

Zap-70 = target: T2, Zap-70 (Homo sapiens, UniProt P43403); test: Kinase inhibition assay (33P transfer), Zap-70; conditions: read-out: Zap-1
T2 construct: Kinases are expressed as either kinase domains or full length constructs; made in house
T2 sequence (P43403 1-619): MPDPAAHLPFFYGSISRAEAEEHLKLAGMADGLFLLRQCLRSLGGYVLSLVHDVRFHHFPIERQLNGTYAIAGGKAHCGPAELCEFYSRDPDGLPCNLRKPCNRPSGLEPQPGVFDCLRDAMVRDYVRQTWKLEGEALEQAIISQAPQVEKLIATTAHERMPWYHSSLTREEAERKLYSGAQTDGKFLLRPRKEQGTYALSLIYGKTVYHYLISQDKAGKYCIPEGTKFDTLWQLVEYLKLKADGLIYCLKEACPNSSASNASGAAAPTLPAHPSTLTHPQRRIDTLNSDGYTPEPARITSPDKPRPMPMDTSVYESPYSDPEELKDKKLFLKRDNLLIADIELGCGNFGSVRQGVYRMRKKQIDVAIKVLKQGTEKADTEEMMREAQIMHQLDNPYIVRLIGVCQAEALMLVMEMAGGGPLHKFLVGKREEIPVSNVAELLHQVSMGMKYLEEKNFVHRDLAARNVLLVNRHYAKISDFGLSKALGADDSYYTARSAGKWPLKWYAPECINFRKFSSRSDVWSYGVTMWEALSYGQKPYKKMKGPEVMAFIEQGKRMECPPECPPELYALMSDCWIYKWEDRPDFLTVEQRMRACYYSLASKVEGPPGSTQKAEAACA
In short: as §1

Kdr = target: T3, Kdr (Homo sapiens, UniProt P35968); test: Kinase inhibition assay (33P transfer), Kdr; conditions: read-out: KDR-1
T3 construct: Kinases are expressed as either kinase domains or full length constructs; made in house
T3 sequence (P35968 20-1356, species assumed): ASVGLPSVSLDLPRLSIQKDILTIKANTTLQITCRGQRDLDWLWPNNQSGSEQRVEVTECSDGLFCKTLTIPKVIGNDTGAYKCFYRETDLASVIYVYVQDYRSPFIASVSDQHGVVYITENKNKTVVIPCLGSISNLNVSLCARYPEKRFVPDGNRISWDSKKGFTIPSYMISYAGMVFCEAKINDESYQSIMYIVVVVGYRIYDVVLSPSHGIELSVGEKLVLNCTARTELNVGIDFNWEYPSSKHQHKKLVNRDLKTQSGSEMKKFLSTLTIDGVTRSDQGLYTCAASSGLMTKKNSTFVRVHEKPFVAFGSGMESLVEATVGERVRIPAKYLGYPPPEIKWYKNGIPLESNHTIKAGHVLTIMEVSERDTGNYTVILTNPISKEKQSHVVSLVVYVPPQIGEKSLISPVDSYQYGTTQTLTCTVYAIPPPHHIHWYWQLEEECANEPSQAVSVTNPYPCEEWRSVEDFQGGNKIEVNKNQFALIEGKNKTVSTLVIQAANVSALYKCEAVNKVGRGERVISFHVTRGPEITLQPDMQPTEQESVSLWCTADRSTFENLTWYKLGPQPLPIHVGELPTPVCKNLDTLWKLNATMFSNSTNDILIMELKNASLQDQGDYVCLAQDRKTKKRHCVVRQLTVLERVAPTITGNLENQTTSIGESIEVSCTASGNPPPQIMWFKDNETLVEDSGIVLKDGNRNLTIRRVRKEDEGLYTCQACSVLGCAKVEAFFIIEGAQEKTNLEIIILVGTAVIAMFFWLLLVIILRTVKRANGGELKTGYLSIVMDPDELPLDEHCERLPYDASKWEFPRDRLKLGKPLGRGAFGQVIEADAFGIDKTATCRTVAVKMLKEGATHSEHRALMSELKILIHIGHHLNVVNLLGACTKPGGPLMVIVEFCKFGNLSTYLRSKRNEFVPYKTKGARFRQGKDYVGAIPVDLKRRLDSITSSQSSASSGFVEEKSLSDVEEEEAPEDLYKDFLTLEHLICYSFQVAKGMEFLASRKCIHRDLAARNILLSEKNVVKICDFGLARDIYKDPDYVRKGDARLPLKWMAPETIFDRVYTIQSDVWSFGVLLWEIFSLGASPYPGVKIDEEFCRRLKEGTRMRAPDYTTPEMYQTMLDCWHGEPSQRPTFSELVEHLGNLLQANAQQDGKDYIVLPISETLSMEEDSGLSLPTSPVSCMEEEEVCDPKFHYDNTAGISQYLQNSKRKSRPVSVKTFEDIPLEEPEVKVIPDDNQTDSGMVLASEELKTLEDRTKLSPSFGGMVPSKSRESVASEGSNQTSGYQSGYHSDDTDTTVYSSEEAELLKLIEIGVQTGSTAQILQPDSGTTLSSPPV
In short: as §1

Lck = target: T4, Lck (Homo sapiens, UniProt P06239); test: Kinase inhibition assay (33P transfer), Lck; conditions: read-out: Lck-1
T4 construct: Kinases are expressed as either kinase domains or full length constructs; made in house
T4 sequence (P06239 whole entry, species assumed, the tested form may be a part): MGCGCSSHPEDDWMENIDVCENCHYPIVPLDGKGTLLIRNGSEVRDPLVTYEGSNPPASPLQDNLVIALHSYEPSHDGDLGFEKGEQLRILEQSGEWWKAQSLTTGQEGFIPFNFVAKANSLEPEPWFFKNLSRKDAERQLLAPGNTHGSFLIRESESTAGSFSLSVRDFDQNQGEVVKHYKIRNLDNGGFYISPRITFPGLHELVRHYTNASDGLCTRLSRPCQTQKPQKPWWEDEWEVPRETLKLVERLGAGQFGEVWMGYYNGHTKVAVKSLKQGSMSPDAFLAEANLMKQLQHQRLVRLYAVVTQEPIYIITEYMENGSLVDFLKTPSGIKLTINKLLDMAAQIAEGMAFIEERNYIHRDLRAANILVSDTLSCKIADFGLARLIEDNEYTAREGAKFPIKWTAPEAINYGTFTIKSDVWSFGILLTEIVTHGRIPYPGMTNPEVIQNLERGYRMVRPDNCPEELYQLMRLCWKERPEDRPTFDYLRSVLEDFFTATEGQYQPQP
In short: as §1

EGFR = target: T5, EGFR (Homo sapiens, UniProt P00533); test: Kinase inhibition assay (33P transfer), EGFR; conditions: Table 2, kinase inhibition class; read-out: EGFR-1
T5 construct: Kinases are expressed as either kinase domains or full length constructs; made in house
T5 sequence (P00533 25-1210, species assumed): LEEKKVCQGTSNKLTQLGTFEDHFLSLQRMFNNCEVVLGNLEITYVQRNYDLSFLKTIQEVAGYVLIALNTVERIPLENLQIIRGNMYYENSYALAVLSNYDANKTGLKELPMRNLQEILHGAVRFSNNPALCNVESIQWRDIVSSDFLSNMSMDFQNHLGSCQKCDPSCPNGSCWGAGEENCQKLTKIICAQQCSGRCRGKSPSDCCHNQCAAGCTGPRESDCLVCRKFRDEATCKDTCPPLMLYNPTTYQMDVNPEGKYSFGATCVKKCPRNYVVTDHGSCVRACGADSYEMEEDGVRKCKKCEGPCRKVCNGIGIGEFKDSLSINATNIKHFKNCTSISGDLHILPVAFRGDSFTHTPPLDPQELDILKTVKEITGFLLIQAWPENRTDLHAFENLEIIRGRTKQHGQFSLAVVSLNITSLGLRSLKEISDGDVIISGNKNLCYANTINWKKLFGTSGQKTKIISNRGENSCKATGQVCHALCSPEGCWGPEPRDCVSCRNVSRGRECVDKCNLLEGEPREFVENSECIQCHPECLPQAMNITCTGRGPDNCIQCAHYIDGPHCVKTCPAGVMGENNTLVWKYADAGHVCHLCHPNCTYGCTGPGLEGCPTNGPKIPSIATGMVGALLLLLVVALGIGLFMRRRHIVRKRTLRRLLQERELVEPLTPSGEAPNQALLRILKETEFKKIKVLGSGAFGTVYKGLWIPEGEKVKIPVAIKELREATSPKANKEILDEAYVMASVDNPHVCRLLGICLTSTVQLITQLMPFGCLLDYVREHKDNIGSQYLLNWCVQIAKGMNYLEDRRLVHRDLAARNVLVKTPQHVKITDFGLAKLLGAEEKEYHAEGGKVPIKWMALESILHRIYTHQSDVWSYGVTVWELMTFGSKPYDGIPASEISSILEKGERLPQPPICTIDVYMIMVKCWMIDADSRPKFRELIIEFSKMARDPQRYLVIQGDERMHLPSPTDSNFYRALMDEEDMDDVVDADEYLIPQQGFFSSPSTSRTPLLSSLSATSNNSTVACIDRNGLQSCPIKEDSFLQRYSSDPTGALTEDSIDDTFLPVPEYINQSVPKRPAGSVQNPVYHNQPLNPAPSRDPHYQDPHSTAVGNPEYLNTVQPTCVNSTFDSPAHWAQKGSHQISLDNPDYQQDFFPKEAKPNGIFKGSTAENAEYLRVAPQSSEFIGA
In short: (§2)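 Kinase domains or full-length enzymes, GST- or polyHis-tagged, were expressed in E. coli or baculovirus High Five cells and affinity-purified. Transfer of 33PO4 from ATP onto plate-bound poly(Glu,Tyr) 4:1 or poly(Arg,Ser) 3:1 was counted by liquid scintillation after a 0.5% phosphoric acid wash. IC50 = concentration halving incorporation.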

Itk = target: T6, Itk (Homo sapiens, UniProt Q08881); test: Kinase inhibition assay (33P transfer), Itk; conditions: read-out: Itk-1
T6 construct: Kinases are expressed as either kinase domains or full length constructs; made in house
T6 sequence (Q08881 1-620): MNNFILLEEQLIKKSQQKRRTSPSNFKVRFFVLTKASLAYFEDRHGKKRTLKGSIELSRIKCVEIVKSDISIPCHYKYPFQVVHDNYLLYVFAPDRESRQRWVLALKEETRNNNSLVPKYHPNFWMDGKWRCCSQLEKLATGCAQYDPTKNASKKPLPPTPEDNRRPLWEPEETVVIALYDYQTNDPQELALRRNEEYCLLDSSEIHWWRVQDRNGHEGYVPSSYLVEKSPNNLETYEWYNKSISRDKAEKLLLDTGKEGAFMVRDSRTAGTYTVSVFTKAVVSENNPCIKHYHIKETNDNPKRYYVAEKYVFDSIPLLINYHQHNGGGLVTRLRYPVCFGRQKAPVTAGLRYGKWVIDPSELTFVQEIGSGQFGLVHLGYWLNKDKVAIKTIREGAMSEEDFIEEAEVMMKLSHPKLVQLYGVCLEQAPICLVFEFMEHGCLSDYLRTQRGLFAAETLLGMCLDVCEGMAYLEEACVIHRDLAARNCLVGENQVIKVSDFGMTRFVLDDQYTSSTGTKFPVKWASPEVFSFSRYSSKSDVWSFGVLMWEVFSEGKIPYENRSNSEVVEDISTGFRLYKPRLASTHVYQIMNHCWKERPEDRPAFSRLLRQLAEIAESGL
In short: as §2

c-Met = target: T7, c-Met (Homo sapiens, UniProt P08581); test: Kinase inhibition assay (33P transfer), c-Met; conditions: Table 2, kinase inhibition class; read-out: Met-1
T7 construct: Kinases are expressed as either kinase domains or full length constructs; made in house
In short: as §2

Tek = target: T8, Tek (Homo sapiens, UniProt Q02763); test: Kinase inhibition assay (33P transfer), Tek; conditions: read-out: Tek-1
T8 construct: Kinases are expressed as either kinase domains or full length constructs; made in house
T8 sequence (Q02763 23-1124, species assumed): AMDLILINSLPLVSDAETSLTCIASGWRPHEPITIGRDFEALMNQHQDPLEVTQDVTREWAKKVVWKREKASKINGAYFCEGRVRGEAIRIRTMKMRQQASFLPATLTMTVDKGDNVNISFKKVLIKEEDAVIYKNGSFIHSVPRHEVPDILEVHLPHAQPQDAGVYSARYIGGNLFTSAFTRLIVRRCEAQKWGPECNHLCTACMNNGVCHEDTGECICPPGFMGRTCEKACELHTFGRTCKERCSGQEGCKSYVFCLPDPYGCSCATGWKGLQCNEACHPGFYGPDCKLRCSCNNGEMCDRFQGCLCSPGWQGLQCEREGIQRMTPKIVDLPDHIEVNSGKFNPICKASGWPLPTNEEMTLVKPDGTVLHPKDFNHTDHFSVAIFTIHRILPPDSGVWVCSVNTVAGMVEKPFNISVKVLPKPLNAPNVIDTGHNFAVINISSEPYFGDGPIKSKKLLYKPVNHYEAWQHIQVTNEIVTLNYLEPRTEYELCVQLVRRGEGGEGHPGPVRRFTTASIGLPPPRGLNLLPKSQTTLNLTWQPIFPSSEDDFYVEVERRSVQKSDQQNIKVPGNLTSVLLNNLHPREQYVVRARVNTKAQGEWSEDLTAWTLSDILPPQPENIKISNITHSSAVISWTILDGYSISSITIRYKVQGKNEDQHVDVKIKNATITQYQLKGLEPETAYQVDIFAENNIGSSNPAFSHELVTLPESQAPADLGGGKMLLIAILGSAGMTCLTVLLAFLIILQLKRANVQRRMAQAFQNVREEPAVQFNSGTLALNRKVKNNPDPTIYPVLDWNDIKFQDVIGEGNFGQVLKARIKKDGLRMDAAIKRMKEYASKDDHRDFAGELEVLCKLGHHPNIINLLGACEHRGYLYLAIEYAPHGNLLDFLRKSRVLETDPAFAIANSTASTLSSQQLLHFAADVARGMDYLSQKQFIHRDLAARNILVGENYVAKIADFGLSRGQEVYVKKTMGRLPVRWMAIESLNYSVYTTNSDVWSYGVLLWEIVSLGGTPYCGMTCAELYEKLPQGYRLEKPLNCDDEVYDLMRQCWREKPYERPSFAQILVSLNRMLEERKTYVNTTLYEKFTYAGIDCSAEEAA
Text: The inhibitor compounds described herein are screened in the following manner. Kinases suitable for use in the following protocol to determine kinase activity of the compounds described herein include, -but are not limited to: Lck, Lyn, Src, Fyn, Syk, Zap-70, Itk, Tec, Btk, EGFR, ErbB2, Kdr, Flt-1, Flt-3, Tek, c-Met, InsR, and AKT.
Kinases are expressed as either kinase domains or full length constructs fused to glutathione S-transferase (GST) or polyHistidine tagged fusion proteins in either E. colior Baculovirus-High Five expression systems. They are purified to near homogeneity by affinity chromatography essentially as previously described (Lehr et al., 1996; Gish et al., 1995). In some instances, kinases are co-expressed or mixed with purified or partially purified regulatory polypeptides prior to measurement of activity.
Kinase activity and inhibition are measured essentially by established protocols (Braunwalder et al., 1996). Briefly, The transfer of ^33PO4 from ATP to the synthetic substrates poly(Glu, Tyr) 4:1 or poly(Arg, Ser) 3:1 attached to the bioactive surface of microtiter plates serves as the basis to evaluate enzyme activity. After an incubation period, the amount of phosphate transferred is measured by first washing the plate with 0.5% phosphoric acid, adding liquid scintillant, and then counting in a liquid scintillation detector. The IC50 is determined by the concentration of compound that causes a 50% reduction in the amount of […] incorporated onto the substrate bound to the plate.

T1 sequence (Q9Y243 whole entry, the tested form may be a part): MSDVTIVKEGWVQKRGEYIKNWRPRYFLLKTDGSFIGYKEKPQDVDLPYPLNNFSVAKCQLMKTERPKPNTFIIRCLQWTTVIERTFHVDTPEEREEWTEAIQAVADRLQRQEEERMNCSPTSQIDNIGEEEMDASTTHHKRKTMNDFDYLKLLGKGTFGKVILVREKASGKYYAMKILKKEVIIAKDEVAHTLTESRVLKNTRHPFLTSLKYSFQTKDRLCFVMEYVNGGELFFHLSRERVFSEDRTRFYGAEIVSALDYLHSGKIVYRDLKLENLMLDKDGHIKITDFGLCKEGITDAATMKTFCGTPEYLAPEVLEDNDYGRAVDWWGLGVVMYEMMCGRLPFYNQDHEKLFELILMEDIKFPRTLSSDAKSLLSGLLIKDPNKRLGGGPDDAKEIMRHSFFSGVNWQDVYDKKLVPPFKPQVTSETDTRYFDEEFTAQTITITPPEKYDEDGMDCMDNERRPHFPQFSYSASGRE

pIC50 (AKT)	pIC50 (Zap-70; Table 3)	pIC50 (Kdr; Table 3)	pIC50 (Lck; Table 3)	pIC50 (EGFR)	pIC50 (Itk; Table 3)	pIC50 (c-Met)	pIC50 (Tek)	pIC50 (Zap-70)	pIC50 (Kdr)	pIC50 (Lck)	pIC50 (Itk)	Compound
< 5.05	< 5.05	5.15 to 5.32	< 5.05	< 5.05	< 5.05	< 5.05	5.05 to 5.15					COc1ccccc1Nc1nc2ccccc2n1-c1ncnc(Nc2cc(OC)c(OC)c(OC)c2)n1 [Compound 398]
< 4.92				> 5.97		5.20 to 5.97	< 4.92	4.92 to 5.03	> 5.97	5.20 to 5.97	5.20 to 5.97	O=C(O)Cc1ccc(Nc2ncnc(Nc3cc(-c4ccco4)n[nH]3)n2)cc1 [Compound 984]
5.11 to 5.27	< 5.00	5.27 to 6.05	5.00 to 5.11	5.27 to 6.05	5.11 to 5.27	< 5.00	5.11 to 5.27					CC(C)(C)OC(=O)NCc1ccc(Nc2ncnc(Nc3cc(-c4ccco4)n[nH]3)n2)cc1 [Compound 431]
< 4.90				5.17 to 5.95		5.01 to 5.17	5.01 to 5.17	5.17 to 5.95	5.01 to 5.17	5.01 to 5.17	< 4.90	O=c1[nH]c2ccccc2n1-c1ncnc(Nc2nccc3ccccc23)n1 [Compound 689]
< 4.94	5.05 to 5.21	< 4.94	4.94 to 5.05	< 4.94	< 4.94	4.94 to 5.05	5.05 to 5.21					O=c1[nH]c2ccccc2n1-c1ncnc(Nc2ccc(OC(F)(F)F)cc2)n1 [Compound 462]
< 5.03				5.30 to 6.08		5.30 to 6.08	< 5.03	< 5.03	5.30 to 6.08	5.30 to 6.08	5.14 to 5.30	COc1cc(Nc2ncnc(Nc3ccc(NC(=O)O[C@@H]4CCOC4)cc3)n2)cc(OC)c1OC [Compound 693]
< 4.96				< 4.96		< 4.96	< 4.96	< 4.96	> 6.01	4.96 to 5.07	< 4.96	COc1cc(Nc2ncnc(-c3ccc(NCCCO)nc3)n2)cc(OC)c1OC [Compound 497]
< 4.93				5.21 to 5.99		< 4.93	< 4.93	< 4.93	5.21 to 5.99	< 4.93	< 4.93	Nc1nc2ccccc2n1-c1ncnc(Nc2ccc(OC(F)(F)F)cc2)n1 [Compound 647]
< 4.90				< 4.90		< 4.90	5.01 to 5.17	< 4.90	5.17 to 5.95	5.17 to 5.95	5.01 to 5.17	O=c1[nH]c2ccccc2n1-c1ncnc(Nc2cnc3ccccc3c2)n1 [Compound 508]
5.19 to 5.97				5.19 to 5.97		5.19 to 5.97	5.19 to 5.97	5.19 to 5.97	5.19 to 5.97	5.19 to 5.97	5.19 to 5.97	Nc1nc2ccccc2n1-c1ncnc(Nc2ccc(Cl)c(Cl)c2)n1 [Compound 528]
